Assay results published in patent US20230390171A1, “DEODORANT COMPOSITIONS COMPRISING LIPOPHILIC CARBOXYLIC ACIDS” (The Procter & Gamble Company, priority 2022, published 2023).
In brackets after ≈: the same amount, converted by molar mass. Read-outs that look alike come from different tables or passages of the source.

What was measured:
S. epi = assay: Minimum Inhibitory Concentration (MIC) of various carboxylic acids; type: cell-based; conditions: for potential to inhibit bacteria at an acidic pH: Table 1
Description: The following MIC (Minimum Inhibitory Concentration) was done on various carboxylic acids. […] In this case, the MIC was tested in two different growth media. […] The MIC or minimum inhibitory concentration test determines antimicrobial activity of a material against a specific bacteria. The most commonly employed methods are the tube dilution method and agar dilution method. Test products that are not clear or precipitate the growth media are tested by agar dilution method which is similar to the tube dilution method except dilutions are plated on agar. The tube dilution test is the standard method for determining levels of microbial resistance to an antimicrobial agent. Serial dilutions of the test agent are made in a liquid microbial growth medium which is inoculated with a standardized number of organisms and incubated for a prescribed time. The lowest concentration (highest dilution) of test agent preventing appearance of turbidity (growth) is considered to be the minimal/minimum inhibitory concentration (MIC). At this dilution the test agent is bacteriostatic.

S. epidermidis = assay: Finished Product Soleris Method (detection time, resistance to growth of bacteria); type: cell-based; conditions: Table 3; 1.5% acid in clear gel, 1:10 dilution
Description: The products shown in examples 1-14 in Table 2 were tested for their resistance to the growth of bacteria by the Finished Product Soleris Method in a 1:10 dilution with artificial eccrine, pH 6, non-stabilized as provided by Pickering Solutions.
The products shown in examples 15-30 in Table 5 were tested for their resistance to the growth of bacteria by the Finished Product Soleris Method in a 1:10 dilution with artificial eccrine, pH 6, non-stabilized as provided by Pickering Solutions.
The products shown in examples 31-34 in table 8 were tested for their resistance to the growth of bacteria by the Finished Product Soleris Method in a 1:10 dilution with artificial eccrine, pH 6, non-stabilized as provided by Pickering Solutions.
Sample preparation is done in the following manner. The product to be tested is weighed into a vial at a ratio of 1 part product to 10 parts Artificial Eccrine, custom pH 6, non-stabilized as obtained by Pickering Laboratories (cat. No. 1700-0023). In some cases where products have a higher hostility, the dilution in a particular study may be 1 part deodorant product to 100 parts Artificial Eccrine, custom pH 6, non-stabilized. Products are heated to 72° C. for 30 minutes to melt solid products and facilitate dispersion into the artificial eccrine. […] There may be some insoluble media present after dispersion. The dilutions remainder of the procedure is described below in “Analyzing via Soleris”.
• S. epidermidis grown overnight on tryptic soy agar (37 C) • Colony from agar is suspended in 25 ml tryptic soy broth in baffled flask, and incubated overnight on shaking platform (37 C) • 1 ml of overnight culture is diluted into 9 ml of sterile H2O (this serves as the inoculum for experimental formulas) • For testing liquid products, 5 ml of experimental formula transferred to 15 ml conical tube. For testing solid formulations, a 48 or 96-well tissue culture plates is used, with each well containing 100 ul of solidified formulations. Alternately, for solid formulations, collect […] and apply 10-20 g of water and let sit at least 1 hour. […]

[1] = growth media pH 4.2, read-out: MIC S. epi pH 4.2
[2] = growth media pH 7.2, read-out: MIC S. epi pH 7.2

Structure (SMILES)	potential to inhibit bacteria at an acidic pH (S. epi)	MIC (S. epi; [1]) [µg/mL]	MIC (S. epi; [2]) [µg/mL]	ability to prevent the growth of bacteria (S. epidermidis)	MIC S. epi pH 4.2 (S. epi; growth media pH 4.2) [ppm]	MIC S. epi pH 7.2 (S. epi; growth media pH 7.2) [ppm]
O=C(O)C(O)c1ccccc1 (stereo not shown) [Mandelic Acid]	greatest potential to inhibit bacteria at an acidic pH	312 (≈ 2050 µM)	> 2500	strong ability to prevent the growth of bacteria		
O=C(O)c1ccc(O)c(O)c1 [Protocatechuic Acid]		500 (≈ 3240 µM)	> 500			
CCCCCCCCC(O)C(=O)O (stereo not shown) [Hydroxycapric Acid]	greatest potential to inhibit bacteria at an acidic pH			strong ability to prevent the growth of bacteria	15.6	>2500
CCCCCCCC(=O)Oc1ccccc1C(=O)O [Capryloyl Salicylic Acid]	greatest potential to inhibit bacteria at an acidic pH	4 (≈ 15.1 µM)	125 (≈ 473 µM)			
O=C(O)CCCCCCCC(=O)O [Azelaic Acid, reference compound]	greatest potential to inhibit bacteria at an acidic pH	125 (≈ 664 µM)	> 500			
O=c1cc(CO)occ1O [Kojic Acid]		> 500	> 500			
O=C(O)c1ccccc1O [salicylic acid, reference compound]				strong ability to prevent the growth of bacteria		
